In patent publication US10246498B2, “Genetically encoded histone reporter allele constructs” (THE JOHNS HOPKINS UNIVERSITY, priority 2014, dated 2019):
Entries after “also recorded” stand apart in the source; their conditions may differ.

Assays:
Klf10 = experiment: Real-time PCR of Kmt2d target gene Klf10 in spleen cells; type: in vivo, mouse; conditions: spleen cells of Kmt2d+/βGeo mice
Experimental: Real-time PCR was performed using Kmt2d-specific probes for exons 20 and 52 (Mm_02600438 and Mm_01717664, respectively) from TaqMan® Gene Expression Assays (Life Technologies, Carlsbad, Calif.). For a comparison of transfection efficiencies for indicator constructs in transient transfection studies, real-time PCR was performed using SYBR Green Real-Time PCR Master Mix (Life Technologies, Carlsbad, Calif.) and primers IND-F-([…]; SEQ ID NO: 5) and IND-R-([…]; SEQ ID NO: 6) that are specific for the H3K4 methylation indicator. For expression analysis for KMT2D target gene KLF10, real-time PCR was performed using Klf10-specific expression assay (Mm00449812_m1) from TaqMan® Gene Expression Assays (Life Technologies, Carlsbad, Calif.).

[1] = test system: H3K4 trimethylation activity in MEFs; experiment: H3K4me3 indicator in murine embryonic fibroblasts from Kmt2d+/βGeo and Kmt2d+/+ mice; type: cell-based, mouse
Description: An H3K4 trimethylation reporter was also created (FIG. 5B). This reporter is based on the H3 tail on one end and the TBP associated factor III (TAFIII) […] on the other end; the TAFIII […] only identifies and binds to trimethylated K4 on H3. When the H3K4 site gets trimethylated, the TAFIII […] can bind to the modified H3 tail and bring the two parts of the separated GFP in close proximity. The activity of the epigenetic modification system can be quantified through fluorescence.
Epigenetic reporter alleles were synthesized (OriGene, Rockville, Md.) using published sequences for component elements (Baird et al. (1999) Proc. Natl. Acad. Sci. 96:11241-6; Souslova et al. (2007) BMC Biotechnol. 7:37). Single nucleotide mutations were created using the QuickChange Lightening kit (Agilent Technologies Inc, Santa Clara, Calif.). For H4ac indicator, K5R, K8R, K12R, K16R and K20R (MUT indicator) were introduced. For H3K4me3 indicator, K4Q and D890A/W891A and M882A (three separate constructs) were introduced. For transient transfections, mouse embryonic fibroblasts (see below) were transfected with Fugene HD (Promega, Madison, Wis.), 48 hours prior to FACS. […] For drug stimulation, drug was added to the media 24 hours prior to FACS. For stable transfections in T293 (American Type Culture Collection) cells, 10 μg/ml of Blastocidin (Life Technologies, Carlsbad, Calif.) was added to the media for several weeks. For stable transfection in MEFs, the reporter was transferred to a ViraPower Lentiviral Expression System (Life Technologies, Carlsbad, Calif.). After selection with Blastocidin, the drug of interest was added 24 hours prior to FACS. SAHA, AR-42 and MS275 were purchased from Selleck (Selleck Chemicals, Houston, Tex.). […] FACS data were analyzed using FlowJo (Tree Star Inc, Ashland, Oreg.). A plasmid expressing HDAC3 was acquired from Addgene (Cambridge, Mass., plasmid 13819) and transfected into a stable cell line carrying the H4 acetyl reporter allele.

[2] = test system: DCX positive cells in the GCL; experiment: Doublecortin (DCX) expression in the GCL (neurogenesis) after oral AR-42; type: in vivo, mouse
Description: Kmt2d^+/βGeo mice, also named Mll2Gt^(RRt024)Byg, were acquired from Bay Genomics (University of California). All experimental mice were on a mixed C57BL/6J and 129/SvEv background. Expected Mendelian ratios were observed when heterozygous animals were bred to wild-type. In heterozygous crosses, however, there was uniform embryonic lethality of homozygotes by ED12, the earliest developmental stage assayed. For treatment with AR-42, mice were orally gavaged daily with drug (Selleck Chemicals, Houston, Tex.) solubilized in vehicle (0.5% methylcellulose, 0.1% Tween-80, water) or with vehicle alone. Drug delivery information was kindly provided by Drs. Chen and Kulp from Ohio State University (Huang et al. (2011) Mol. Pharmacol. 79:197-20619). Drug was administered for 14 days and mice were sacrificed on day 15. Morris water maze testing was initiated at day 7 and a dose of 10 mg/kg/day was used for these studies. For quantification of DCX positive cells, doses of 0, 5, 10 and 25 mg/kg/day were used. Genotyping was performed using primers B-GeoF-([…]; SEQ ID NO: 1) and B-GeoR-([…]; SEQ ID NO: 2) that are specific for the targeted allele and TcrdF-([…]; SEQ ID NO: 3) and TcrdR-([…]; SEQ ID NO: 4) that control for sufficient DNA concentration. Real-time PCR using the same primers allows discrimination between the heterozygous and homozygous state for the targeted allele. Maxillary protrusion was evaluated by ten investigators blinded to genotype and they were asked to rate maxillary protrusion on radiographs as either large (2) or small (1). […] All experiments were performed using mouse protocols approved by the Animal Care and Committee of Johns Hopkins University School of Medicine. The mouse protocols used for this study are in accordance with the guidelines used by the NIH for mouse care and handling.
Every 6th brain section was selected and then blocked with 5% Bovine Serum Albumin (BSA) at room temperature followed by incubation with primary antibodies overnight at 4° C. Secondary antibodies were then applied for 1 hour at room temperature, after which sections were mounted onto microscope slides with Vectamount with DAPI (Vector Laboratories, Burlingame, Calif.). Primary antibodies included Doublecortin (DCX) (SC-8066, Santa Cruz Biotechnology, Dallas, Tex., 1:200 goat), trimethylated H3K4 (9727L, Cell Signaling Technology, Beverly, Mass., 1:500 rabbit), and Kmt2d H-300 (SC-292359, Santa Cruz Biotechnology, Dallas, Tex., 1:500 rabbit). Non-specific binding was not observed when sections were sequentially exposed to serum (or IgG when appropriate) from the same species as the primary antibody for each experiment (i.e. rabbit for KMT2D and H3K4me3 and goat for doublecortin), followed by the secondary antibody used for KMT2D and H3K4me3 (anti-rabbit) or doublecortin (anti-goat, FIG. 29).
The area of both the GCL and DCX+ cells was measured using the NS elements 2.0 software (Nikon, Tokyo, JPN). Normalized DCX area was calculated by measuring the DCX+ area of the GCL and setting the baseline (Kmt2d^+/+) fraction to 1. A Student t-test with significance value set at P<0.05 was used for comparison of DCX+ area referenced to GCL area between genotypes and treatment arms.

CC(C)[C@H](C(=O)Nc1ccc(C(=O)NO)cc1)c1ccccc1 [AR-42]
Klf10 expression (Klf10): normalization of expression of Klf10; also recorded: normalized
dose at which Kmt2d+/βGeo MEFs achieve untreated wild-type levels of activity ([1]; Kmt2d+/βGeo MEFs): 5 µM
H3K4 trimethylation activity ([1]; Kmt2d+/βGeo cells (MEFs)): enhanced
H3K4me3 indicator activity in MEFs ([1]; both genotypes (Kmt2d+/+ and Kmt2d+/βGeo)): dose-dependent response
DCX expression ([2]; 10 mg/kg/day, older (5-6 months) Kmt2d+/βGeo mice): improved
DCX expression ([2]; 25 mg/kg/day, Kmt2d+/+ animals): reduced DCX expression
DCX expression ([2]; 25 mg/kg/day, Kmt2d+/βGeo mice): did not improve DCX expression
DCX expression in the GCL ([2]; 25 mg/kg/day, young (1-2 month) and old (5-6 month) mice, both genotypes): decreased DCX expression
neurogenesis (normalized DCX expression) ([2]; 5 and 10 mg/kg/day, 1-2 month old Kmt2d+/βGeo mice): dose-dependent increase in neurogenesis
DCX expression ([2]; 5 and 10 mg/kg/day, Kmt2d+/+ or Kmt2d+/βGeo, both age groups): preservation or restoration of DCX expression
